{
  "source": "the NIST ThermoML archive (doi:10.1021/je060330k)",
  "conditions": "Liquid, Closed cell (Static) method",
  "note": "± gives the expanded uncertainty stated by the source.",
  "data": [
    {"smiles": "FCC(F)(F)F", "note": "[1,1,1,2-tetrafluoroethane]", "values": [
      {"measurement": "vapor or sublimation pressure", "setting": "295.4 K", "value": "612 ± 1.3", "unit": "kPa"},
      {"measurement": "vapor or sublimation pressure", "setting": "300 K", "value": "704.4 ± 1.5", "unit": "kPa"},
      {"measurement": "vapor or sublimation pressure", "setting": "304 K", "value": "788.5 ± 1.6", "unit": "kPa"}
    ]}
  ]
}
